# Several values for one entry are separate records, joined by “and”; a condition that tells them apart may be missing. Equal entries are not always repeated.
# Biological target: CDK2 (human) (UniProt P24941)
# Experiment: Enzyme Assay
row,SMILES,IC50
1,CN1CC=CCCOc2cccc(c2)-c2ccnc(n2)Nc2cc(ccn2)C1,1 to 5 µM
2,COc1ccc2cc1COCC=CCOc1cccc(c1)-c1ccnc(n1)N2,≤ 1 µM and > 5 µM
3,CN1CC=CCCOc2cccc(c2)-c2ccnc(n2)Nc2ccc(OCCn3cncn3)c(c2)C1,≤ 1 µM
4,O=C1CCC=CCOCc2cccc(c2)Nc2nccc(n2)-c2cccc(c2)N1,1 to 5 µM
5,COc1cc2cc(c1OCCN1CCCC1)COCC=CCOCc1cccc(c1)-c1ccnc(n1)N2,1 to 5 µM
6,CCN(CC)CCOc1ccc2cc1COCC=CCCOc1cccc(c1)-c1ccnc(n1)N2,> 5 µM
7,C1=CCN(C2CC2)Cc2cccc(c2)Nc2nccc(n2)-c2cccc(c2)OCC1,≤ 1 µM
8,CN1CC=CCCOc2cccc(c2)-c2ccnc(n2)Nc2ccc(OCCN3CCOCC3)c(c2)C1,≤ 1 µM
9,CCN(CC)CCOc1ccc2cc1COCC=CCCOc1cc(ccc1OC)-c1ccnc(n1)N2,> 5 µM
10,C1=CCOCc2cc(ccc2OCCN2CCCC2)Nc2nccc(n2)C2=CC=C(COC1)O2,> 5 µM
11,CN1Cc2cccc(c2)Nc2nccc(n2)-c2cccc(c2)OCCC2CC2C1 (stereo unspecified),≤ 1 µM
12,Cc1cnc2nc1-c1cccc(c1)OCCC=CCN(C)Cc1cccc(c1)N2,≤ 1 µM
13,CN1CC=CCCOc2cccc(c2)-c2ccnc(n2)Nc2ccc(N3CCOCC3)c(c2)C1,≤ 1 µM
14,C1=CCOCc2cc(ccc2OCCN2CCCC2)Nc2nccc(n2)-c2coc(c2)COC1,> 5 µM
15,c1cc2cc(c1)-c1ccnc(n1)Nc1ccc(OCCN3CCCC3)c(c1)COCC1CC1COC2 (stereo unspecified),1 to 5 µM
16,C1=CCOCc2cc(ccc2OCCN2CCCC2)Nc2nccc(n2)-c2cc(co2)COC1,> 5 µM
17,CN1CC=CCOCC2=CC=C(O2)c2ccnc(n2)Nc2cccc(c2)C1,≤ 1 µM
18,C1=CCOCc2cc(ccc2OCCN2CCCC2)Nc2nccc(n2)C2=CC=C(COC1)S2,> 5 µM
19,CCN(CC)CCOc1ccc2cc1COCC=CCOCc1cccc(c1)-c1ccnc(n1)N2,1 to 5 µM
20,CN1CC=CCCOc2cc(ccc2N)-c2ccnc(n2)Nc2cccc(c2)C1,≤ 1 µM
21,C1=CCOCc2cc(ccc2OCCN2CCCC2)Nc2nccc(n2)-c2csc(c2)COC1,> 5 µM

row,SMILES,IC50
1,COc1ccc2cc1COCC=CCOCc1cc(ccc1OCCN1CCCC1)Nc1nccc-2n1,> 5 µM
2,CN1CC=CCC(=O)Nc2cccc(c2)-c2ccnc(n2)Nc2cccc(c2)C1,1 to 5 µM
3,CN1CC=CCOCC2=CC=C(S2)c2ccnc(n2)Nc2ccc(OCCN3CCCC3)c(c2)C1,≤ 1 µM
4,C1=CCNCc2cccc(c2)Nc2nccc(n2)-c2cccc(c2)OCC1,≤ 1 µM
5,CCS(=O)(=O)CCOc1ccc2cc1CN(C)CC=CCCOc1cccc(c1)-c1ccnc(n1)N2,≤ 1 µM
6,CN1CC=CCCOc2cc(F)cc(c2)-c2ccnc(n2)Nc2cccc(c2)C1,≤ 1 µM
7,C1=CCN(C2CC2)Cc2cc(ccc2OCCN2CCOCC2)Nc2nccc(n2)-c2cccc(c2)OCC1,≤ 1 µM
8,CN1CC=CCCOc2cccc(c2)-c2ccnc(n2)Nc2ccc(OCCN3CCCCC3)c(c2)C1,≤ 1 µM
9,CN1CC=CCCOc2cc(F)cc(c2)-c2ccnc(n2)Nc2ccc(OCCN3CCCC3)c(c2)C1,≤ 1 µM
10,C1=CCOCc2cc(ccc2OCCN2CCCC2)Nc2nccc(n2)-c2cncc(c2)COC1,1 to 5 µM
11,Fc1ccc2cc1COCC=CCOCc1cc(ccc1OCCN1CCCC1)Nc1nccc-2n1,1 to 5 µM
12,CN1CCN(c2ccc3cc2COCC=CCOCc2cccc(c2)-c2ccnc(n2)N3)CC1,> 5 µM
13,C1=CCOCc2cc(ccc2OCCN2CCCC2)Nc2nccc(n2)-c2cccc(c2)COC1,1 to 5 µM
14,CN1CC=CCCOc2cccc(c2)-c2ccnc(n2)Nc2ccc(OCCN3CCCC3)c(c2)C1,≤ 1 µM
15,CN1CC=CCCOc2cccc(c2)-c2ccnc(n2)Nc2cc(N)cc(c2)C1,≤ 1 µM
16,C1=CCOCc2cc(ccc2N2CCOCC2)Nc2nccc(n2)-c2cccc(c2)COC1,> 5 µM
17,CCN(CC)CCOc1ccc2cc1COCC=CCCOc1cccc(c1)-c1nc(ncc1C)N2,> 5 µM
18,O=C1NCC=CCOCc2cccc(c2)Nc2nccc(n2)-c2cccc1c2,> 5 µM
19,Fc1cc2cc(c1)-c1ccnc(n1)Nc1ccc(OCCN3CCCC3)c(c1)COCC=CCCO2,1 to 5 µM
20,CCN(CC)CCOc1ccc2cc1CN(C)CC=CCCOc1cccc(c1)-c1ccnc(n1)N2,≤ 1 µM

# Reference: the Kinase Knowledgebase extract (Sharma et al. 2016)
